Data published in ChEMBL document CHEMBL1649287, “Postantibiotic effect of ceftaroline against gram-positive organisms” (2009).
Values after ≈ are worked out from the molar mass of the structure shown.

Legend:
Type in all cases: functional
Staphylococcus aureus [1] = assay: Antimicrobial activity against methicillin-resistant, vancomycin-resistant Staphylococcus aureus 770 assessed as time required to induce sub-MIC effect at 0.2 times MIC after 1 hr by plate counting method; details: Staphylococcus aureus, 770, 1 h
Enterococcus faecalis [2] = assay: Antimicrobial activity against vancomycin-sensitive Enterococcus faecalis 20 assessed as time required to induce sub-MIC effect at 0.2 times MIC after 1 hr by plate counting method; details: Enterococcus faecalis, 20, 1 h
Enterococcus faecalis [3] = assay: Antimicrobial activity against vancomycin-sensitive Enterococcus faecalis ATCC 29212 assessed as time required to induce sub-MIC effect at 0.2 times MIC after 1 hr by plate counting method; details: ATCC 29212, 1 h
Enterococcus faecalis [4] = assay: Antimicrobial activity against vancomycin-resistant Enterococcus faecalis 266 assessed as time required to induce sub-MIC effect at 0.2 times MIC after 1 hr by plate counting method; details: Enterococcus faecalis, 266, 1 h
Streptococcus pneumoniae [5] = assay: Antimicrobial activity against Penicillin-intermediate Streptococcus pneumoniae s1234 assessed as time required to induce post antibiotic sub-MIC effect at 0.2 times MIC after 1 hr by plate counting method; details: s1234, 1 h
Staphylococcus aureus [6] = assay: Antimicrobial activity against methicillin-susceptible, vancomycin-susceptible Staphylococcus aureus ATCC 29213 assessed as time required to induce post antibiotic sub-MIC effect at 0.2 times MIC after 1 hr by plate counting method; details: ATCC 29213, 1 h
Staphylococcus aureus [7] = assay: Antimicrobial activity against methicillin-resistant, vancomycin-susceptible Staphylococcus aureus vs1 assessed as time required to induce post antibiotic sub-MIC effect at 0.2 times MIC after 1 hr by plate counting method; details: vs1, 1 h
Staphylococcus aureus [8] = assay: Antimicrobial activity against methicillin-susceptible, vancomycin-susceptible Staphylococcus aureus sox1 assessed as time required to induce sub-MIC effect at 0.3 times MIC after 1 hr by plate counting method; details: sox1, 1 h
Staphylococcus aureus [9] = assay: Antimicrobial activity against methicillin-resistant, vancomycin-susceptible Staphylococcus aureus vs1 assessed as time required to induce sub-MIC effect at 0.3 times MIC after 1 hr by plate counting method; details: vs1, 1 h
Enterococcus faecalis [10] = assay: Antimicrobial activity against vancomycin-sensitive Enterococcus faecalis 20 assessed as time required to induce sub-MIC effect at 0.3 times MIC after 1 hr by plate counting method; details: Enterococcus faecalis, 20, 1 h
Enterococcus faecalis [11] = assay: Antimicrobial activity against vancomycin-sensitive Enterococcus faecalis ATCC 29212 assessed as time required to induce post antibiotic sub-MIC effect at 0.3 times MIC after 1 hr by plate counting method; details: ATCC 29212, 1 h
Enterococcus faecalis [12] = assay: Antimicrobial activity against vancomycin-resistant Enterococcus faecalis 266 assessed as time required to induce post antibiotic sub-MIC effect at 0.3 times MIC after 1 hr by plate counting method; details: Enterococcus faecalis, 266, 1 h
Streptococcus pneumoniae [13] = assay: Antimicrobial activity against Penicillin-intermediate Streptococcus pneumoniae s1234 assessed as time required to induce sub-MIC effect at 0.4 times MIC after 1 hr by plate counting method; details: s1234, 1 h
Streptococcus pneumoniae [14] = assay: Antimicrobial activity against Penicillin-, erythromycin-resistant Streptococcus pneumoniae 37 assessed as time required to induce sub-MIC effect at 0.4 times MIC after 1 hr by plate counting method; details: Streptococcus pneumoniae, 37, 1 h
Staphylococcus aureus [15] = assay: Antimicrobial activity against methicillin-resistant, vancomycin-intermediate Staphylococcus aureus 510 assessed as time required to induce sub-MIC effect at 0.4 times MIC after 1 hr by plate counting method; details: Staphylococcus aureus, 510, 1 h
Enterococcus faecalis [16] = assay: Antimicrobial activity against vancomycin-sensitive Enterococcus faecalis 20 assessed as time required to induce sub-MIC effect at 0.4 times MIC after 1 hr by plate counting method; details: Enterococcus faecalis, 20, 1 h
Enterococcus faecalis [17] = assay: Antimicrobial activity against vancomycin-resistant Enterococcus faecalis 609 assessed as time required to induce sub-MIC effect at 0.4 times MIC after 1 hr by plate counting method; details: Enterococcus faecalis, 609, 1 h
Streptococcus pneumoniae [18] = assay: Antimicrobial activity against Penicillin-susceptible Streptococcus pneumoniae s502 assessed as time required to induce post antibiotic sub-MIC effect at 0.4 times MIC after 1 hr by plate counting method; details: s502, 1 h
Streptococcus pneumoniae [19] = assay: Antimicrobial activity against Penicillin-susceptible Streptococcus pneumoniae ATCC 49617 assessed as time required to induce post antibiotic sub-MIC effect at 0.4 times MIC after 1 hr by plate counting method; details: ATCC 49617, 1 h
Staphylococcus aureus [20] = assay: Antimicrobial activity against methicillin-susceptible, vancomycin-susceptible Staphylococcus aureus sox1 assessed as time required to induce post antibiotic sub-MIC effect at 0.4 times MIC after 1 hr by plate counting method; details: sox1, 1 h
Staphylococcus aureus [21] = assay: Antimicrobial activity against methicillin-resistant, vancomycin-hetroresistant Staphylococcus aureus 618 assessed as time required to induce post antibiotic sub-MIC effect at 0.4 times MIC after 1 hr by plate counting method; details: Staphylococcus aureus, 618, 1 h
Enterococcus faecalis [22] = assay: Antimicrobial activity against vancomycin-sensitive Enterococcus faecalis 20 assessed as time required to induce post antibiotic sub-MIC effect at 0.4 times MIC after 1 hr by plate counting method; details: Enterococcus faecalis, 20, 1 h
Staphylococcus aureus [23] = assay: Antimicrobial activity against Staphylococcus aureus ATCC 29213 infected in neutropenic ICR mouse assessed as post antibiotic effect at 1.56 to 100 mg/kg, sc administered 14 hrs post infection; details: dose mg/kg 1.56-100; route subcutaneous
Streptococcus pneumoniae [24] = assay: Antimicrobial activity against Streptococcus pneumoniae ATCC 10813 infected in neutropenic ICR mouse assessed as post antibiotic effect at 1.56 to 100 mg/kg, sc administered 14 hrs post infection; details: dose mg/kg 1.56-100; route subcutaneous
Streptococcus pneumoniae [25] = assay: Antimicrobial activity against Penicillin-intermediate Streptococcus pneumoniae s1234 by microdilution method
Staphylococcus aureus [26] = assay: Antimicrobial activity against methicillin-susceptible, vancomycin-susceptible Staphylococcus aureus sox1 by microdilution method
Staphylococcus aureus [27] = assay: Antimicrobial activity against methicillin-resistant, vancomycin-intermediate Staphylococcus aureus 510 by microdilution method
Staphylococcus aureus [28] = assay: Antimicrobial activity against methicillin-resistant, vancomycin-susceptible Staphylococcus aureus vs1 assessed as post antibiotic effect at 10 times MIC after 1 hr by plate counting method; details: vs1, 1 h
Staphylococcus aureus [29] = assay: Antimicrobial activity against methicillin-resistant, vancomycin-hetroresistant Staphylococcus aureus 618 assessed as post antibiotic effect at 10 times MIC after 1 hr by plate counting method; details: Staphylococcus aureus, 618, 1 h
Enterococcus faecalis [30] = assay: Antimicrobial activity against vancomycin-sensitive Enterococcus faecalis 20 assessed as post antibiotic effect at 10 times MIC after 1 hr by plate counting method; details: Enterococcus faecalis, 20, 1 h
Enterococcus faecalis [31] = assay: Antimicrobial activity against vancomycin-sensitive Enterococcus faecalis ATCC 29212 assessed as post antibiotic effect at 10 times MIC after 1 hr by plate counting method; details: ATCC 29212, 1 h
Enterococcus faecalis [32] = assay: Antimicrobial activity against vancomycin-resistant Enterococcus faecalis 609 assessed as post antibiotic effect at 10 times MIC after 1 hr by plate counting method; details: Enterococcus faecalis, 609, 1 h
Streptococcus pneumoniae [33] = assay: Antimicrobial activity against Penicillin-susceptible Streptococcus pneumoniae ATCC 49617 assessed as time required to induce sub-MIC effect at 0.2 times MIC after 1 hr by plate counting method; details: ATCC 49617, 1 h
Staphylococcus aureus [34] = assay: Antimicrobial activity against methicillin-susceptible, vancomycin-susceptible Staphylococcus aureus ATCC 29213 assessed as time required to induce sub-MIC effect at 0.2 times MIC after 1 hr by plate counting method; details: ATCC 29213, 1 h

CCO/N=C(\C(=O)N[C@@H]1C(=O)N2C(C(=O)[O-])=C(Sc3nc(-c4cc[n+](C)cc4)cs3)CS[C@H]12)c1nsc(NP(=O)(O)O)n1 [CEFTAROLINE FOSAMIL]
time (Staphylococcus aureus [1]): 0.3 h | time (Enterococcus faecalis [2]): 0.9 h | PAE (Enterococcus faecalis [3]): 3.1 h | time (Enterococcus faecalis [4]): 1.4 h | PAE (Streptococcus pneumoniae [5]): 1.4 h | PAE (Staphylococcus aureus [6]): 2.5 h | time (Staphylococcus aureus [7]): 2.7 h | PAE (Staphylococcus aureus [8]): 0.9 h | time (Staphylococcus aureus [9]): 0.7 h | PAE (Enterococcus faecalis [10]): 1.3 h | PAE (Enterococcus faecalis [11]): > 10.6 h | time (Enterococcus faecalis [12]): > 10.3 h | PAE (Streptococcus pneumoniae [13]): 0.6 h | time (Streptococcus pneumoniae [14]): 0.5 h | time (Staphylococcus aureus [15]): 1.3 h | PAE (Enterococcus faecalis [16]): 3.6 h | time (Enterococcus faecalis [17]): 2.2 h | PAE (Streptococcus pneumoniae [18]): 4.5 h | PAE (Streptococcus pneumoniae [19]): 7.2 h | PAE (Staphylococcus aureus [20]): 6.2 h | time (Staphylococcus aureus [21]): 2.9 h | PAE (Enterococcus faecalis [22]): 10.5 h | PAE (Staphylococcus aureus [23]): 0.8 h | PAE (Streptococcus pneumoniae [24]): 1.5 h | MIC (Streptococcus pneumoniae [25]): 0.12 µg/mL (≈ 0.175 µM) | MIC (Staphylococcus aureus [26]): 0.25 µg/mL (≈ 0.365 µM) | MIC (Staphylococcus aureus [27]): 0.5 µg/mL (≈ 0.73 µM) | PAE (Staphylococcus aureus [28]): 1.2 h | PAE (Staphylococcus aureus [29]): 0.7 h | PAE (Enterococcus faecalis [30]): 0.5 h | PAE (Enterococcus faecalis [31]): 0.8 h | PAE (Enterococcus faecalis [32]): 0.2 h | PAE (Streptococcus pneumoniae [33]): 0.2 h | PAE (Staphylococcus aureus [34]): 0.2 h
